Measurements reported in patent US20230340011A1 (Asteroid Therapeutics, priority 2022, published 2023).

Target: LXRβ (Homo sapiens (Human), UniProt P55055)
Experiment: In vitro assay LXRβ: PathHunter NHR CHO cells, LXRβ / Steroid Receptor Co-activator Peptide enzyme fragment complementation
Format: cell-based
Details: PathHunter NHR CHO cells, full-length human LXRβ and SRCP, chemiluminescent signal; read-out: LXRβ PPI
Procedure: PathHunter NHR CHO cells stably transfected with tagged full-length human LXRβ and a nuclear fusion protein containing Steroid Receptor Co-activator Peptide (SRCP). The full-length human LXRβ was tagged with the ProLink™ component of the DiscoverX Enzyme Fragment Complementation (EFC) system and the SRCP domain is fused to the enzyme acceptor component (EA) expressed in the nucleus. Cells were seeded in a total volume of 20 μL into white walled, 384-well microplates and incubated at 37° C. overnight prior to testing. Assay media contained charcoal-dextran filtered serum to reduce the level of hormones present. Final assay vehicle concentration was 1%. […] Microplates were read following signal generation with a PerkinElmer Envision instrument for chemiluminescent signal detection.

Chain of LXRβ (P55055 whole entry, the tested form may be a part): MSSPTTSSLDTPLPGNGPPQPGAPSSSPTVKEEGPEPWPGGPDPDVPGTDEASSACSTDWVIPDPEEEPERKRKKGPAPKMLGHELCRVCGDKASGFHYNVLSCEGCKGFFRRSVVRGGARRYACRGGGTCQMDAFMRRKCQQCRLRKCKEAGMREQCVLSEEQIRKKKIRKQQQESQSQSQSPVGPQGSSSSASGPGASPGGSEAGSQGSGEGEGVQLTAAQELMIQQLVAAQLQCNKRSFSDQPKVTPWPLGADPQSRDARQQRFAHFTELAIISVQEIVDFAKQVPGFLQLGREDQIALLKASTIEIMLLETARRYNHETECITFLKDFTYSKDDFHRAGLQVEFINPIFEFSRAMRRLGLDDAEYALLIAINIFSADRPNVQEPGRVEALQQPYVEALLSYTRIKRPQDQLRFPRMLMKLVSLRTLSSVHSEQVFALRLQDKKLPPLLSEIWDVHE

Row | Compound | EC50
1 | CC(NS(C)(=O)=O)C1CCN(C(=O)CC[C@@H](C)[C@H]2CC[C@H]3[C@@H]4CC=C5C[C@@H](O)CC[C@]5(C)[C@H]4CC[C@]23C)CC1 (stereo partly drawn) [Example 229, N-(1-(1-((R)-4-((3S,8S,9S,10R,13R,14S,17R)-3-hydroxy-10,13-dimethyl-2,3,4,7,8,9,10,11,12,13,14,15,16,17-tetradecahydro-1H-cyclopenta[a]phenanthren-17-yl)pentanoyl)piperidin-4-yl)ethyl)methanesulfonamide] | > 10 µM
2 | C[C@H](CCC(=O)N1CCN(C(=O)c2ccnnc2)CC1)[C@H]1CC[C@H]2[C@@H]3CC=C4C[C@@H](O)CC[C@]4(C)[C@H]3CC[C@]12C [Example 312, (R)-4-((3S,8S,9S,10R,13R,14S,17R)-3-hydroxy-10,13-dimethyl-2,3,4,7,8,9,10,11,12,13,14,15,16,17-tetradecahydro-1H-cyclopenta[a]phenanthren-17-yl)-1-(4-(pyridazine-4-carbonyl)piperazin-1-yl) pentan-1-one] | > 10 µM
3 | C[C@H](CCC(=O)N1CCN(Cc2cnn(C)c2)CC1)[C@H]1CC[C@H]2[C@@H]3CC=C4C[C@@H](O)CC[C@]4(C)[C@H]3CC[C@]12C [Example 223, (R)-4-((3S,8S,9S,10R,13R,14S,17R)-3-hydroxy-10,13-dimethyl-2,3,4,7,8,9,10,11,12,13,14,15,16,17-tetradecahydro-1H-cyclopenta[a]phenanthren-17-yl)-1-(4-((1-methyl-1H-pyrazol-4-yl)methyl)piperazin-1-yl)pentan-1-one] | > 10 µM
4 | COC(=O)N1CCN(C(=O)CCC[C@H]2CC[C@H]3[C@@H]4CC=C5C[C@@H](O)CC[C@]5(C)[C@H]4CC[C@]23C)CC1 [Example 283] | > 10 µM
5 | CON(C)C(=O)[C@H](C)C[C@@H](C)[C@H]1CC[C@H]2[C@@H]3CC=C4C[C@@H](O)CC[C@]4(C)[C@H]3CC[C@]12C [Example 141, (2R,4R)-4-[(1R,3aS,3bS,7S,9aR,9bS,11aR)-7-hydroxy-9a,11a-dimethyl-2,3,3a,3b,4,6,7,8,9,9a,9b,10,11,11a-tetradecahydro-1H-cyclopenta[a]phenanthren-1-yl]-N-methoxy-N,2-dimethylpentanamide] | > 10 µM
6 | C[C@H](CCC(=O)N(C)CCc1ccccn1)[C@H]1CC[C@H]2[C@@H]3CC=C4C[C@@H](O)CC[C@]4(C)[C@H]3CC[C@]12C [Example 293, (4R)-4-[(1R,3aS,3bS,7S,9aR,9bS,11aR)-7-hydroxy-9a,11a-dimethyl-1H,2H,3H,3aH,3bH,4H,6H,7H,8H,9H,9aH,9bH,10H,11H,11aH-cyclopenta[a]phenanthren-1-yl]-N-methyl-N-[2-(pyridin-2-yl)ethyl]pentanamide] | 0.25 to 1 µM
7 | C[C@H](CCC(=O)N1CCC(Oc2ccncn2)CC1)[C@H]1CC[C@H]2[C@@H]3CC=C4C[C@@H](O)CC[C@]4(C)[C@H]3CC[C@]12C [Example 221, (4R)-4-[(1R,3aS,3bS,7S,9aR,9bS,11aR)-7-hydroxy-9a,11a-dimethyl-1H,2H,3H,3aH,3bH,4H,6H,7H,8H,9H,9aH,9bH,10H,11H,11aH-cyclopenta[a]phenanthren-1-yl]-1-[4-(pyrimidin-4-yloxy)piperidin-1-yl]pentan-1-one] | 1 to 10 µM
8 | C[C@H](CCC(=O)N1CCN(c2cncnc2)CC1)[C@H]1CC[C@H]2[C@@H]3CC=C4C[C@@H](O)CC[C@]4(C)[C@H]3CC[C@]12C [Example 222, (R)-4-((3S,8S,9S,10R,13R,14S,17R)-3-hydroxy-10,13-dimethyl-2,3,4,7,8,9,10,11,12,13,14,15,16,17-tetradecahydro-1H-cyclopenta[a]phenanthren-17-yl)-1-(4-(pyrimidin-5-yl)piperazin-1-yl)pentan-1-one] | > 10 µM
9 | C[C@H](CCC(=O)N1OCC[C@@H]1C)[C@H]1CC[C@H]2[C@@H]3CC=C4C[C@@H](O)CC[C@]4(C)[C@H]3CC[C@]12C [Example 57, (R)-4-((3S,8S,9S,10R,13R,14S,17R)-3-hydroxy-10,13-dimethyl-2,3,4,7,8,9,10,11,12,13,14,15,16,17-tetradecahydro-1H-cyclopenta[a]phenanthren-17-yl)-1-((S)-3-methylisoxazolidin-2-yl)pentan-1-one] | 0.25 to 1 µM
10 | CC(=O)N1CCN(C(=O)CC[C@@H](C)[C@H]2CC[C@H]3[C@@H]4CC=C5C[C@@H](O)CC[C@]5(C)[C@H]4CC[C@]23C)[C@@H](C)C1 [Example 276, (4R)-4-[(1R,3aS,3bS,7S,9aR,9bS,11aR)-7-hydroxy-9a,11a-dimethyl-1H,2H,3H,3aH,3bH,4H,6H,7H,8H,9H,9aH,9bH,10H,11H,11aH-cyclopenta[a]phenanthren-1-yl]-1-[(2S)-4-acetyl-2-methylpiperazin-1-yl]pentan-1-one] | > 10 µM
11 | C[C@H](CCC(=O)N1CCC(OC(F)F)CC1)[C@H]1CC[C@H]2[C@@H]3CC=C4C[C@@H](O)CC[C@]4(C)[C@H]3CC[C@]12C [Example 252, (R)-1-(4-(difluoromethoxy)piperidin-1-yl)-4-((3S,8S,9S,10R,13R,14S,17R)-3-hydroxy-10,13-dimethyl-2,3,4,7,8,9,10,11,12,13,14,15,16,17-tetradecahydro-1H-cyclopenta[a]phenanthren-17-yl)pentan-1-one] | > 10 µM
12 | CO[C@H]1CCCN(C(=O)CC[C@@H](C)[C@H]2CC[C@H]3[C@@H]4CC=C5C[C@@H](O)CC[C@]5(C)[C@H]4CC[C@]23C)C1 [Example 300, (R)-4-((3S,8S,9S,10R,13R,14S,17R)-3-hydroxy-10,13-dimethyl-2,3,4,7,8,9,10,11,12,13,14,15,16,17-tetradecahydro-1H-cyclopenta[a]phenanthren-17-yl)-1-((S)-3-methoxypiperidin-1-yl)pentan-1-one] | 0.25 to 1 µM
13 | COCCON(C)C(=O)CC[C@@H](C)[C@H]1CC[C@H]2[C@@H]3CC=C4C[C@@H](O)CC[C@]4(C)[C@H]3CC[C@]12C [Example 27, (R)-4-((3S,8S,9S,10R,13R,14S,17R)-3-hydroxy-10,13-dimethyl-2,3,4,7,8,9,10,11,12,13,14,15,16,17-tetradecahydro-1H-cyclopenta[a]phenanthren-17-yl)-N-(2-methoxyethoxy)-N-methylpentanamide] | 1 to 10 µM
14 | C[C@H](OC(=O)CN(C)C)[C@H]1CC[C@H]2[C@@H]3CC=C4C[C@@H](O)CC[C@]4(C)[C@H]3CC[C@]12C [Example 143, (S)-1-((3S,8S,9S,10R,13S,14S,17S)-3-hydroxy-10,13-dimethyl-2,3,4,7,8,9,10,11,12,13,14,15,16,17-tetradecahydro-1H-cyclopenta[a]phenanthren-17-yl)ethyl dimethylglycinate] | > 10 µM
15 | C[C@H](CCC(=O)N1CCC(CNS(=O)(=O)C(F)(F)F)CC1)[C@H]1CC[C@H]2[C@@H]3CC=C4C[C@@H](O)CC[C@]4(C)[C@H]3CC[C@]12C [Example 231, 1,1,1-trifluoro-N-((1-((R)-4-((3S,8S,9S,10R,13R,14S,17R)-3-hydroxy-10,13-dimethyl-2,3,4,7,8,9,10,11,12,13,14,15,16,17-tetradecahydro-1H-cyclopenta[a]phenanthren-17-yl)pentanoyl)piperidin-4-yl)methyl)methanesulfonamide] | > 10 µM
16 | C[C@@H](NC(=O)C(=O)N(C)C)[C@H]1CC[C@H]2[C@@H]3CC=C4C[C@@H](O)CC[C@]4(C)[C@H]3CC[C@]12C (single isomer, unassigned) [Example 119] | > 10 µM
17 | C[C@H](CCC(=O)N1CCC(Oc2cccnc2)CC1)[C@H]1CC[C@H]2[C@@H]3CC=C4C[C@@H](O)CC[C@]4(C)[C@H]3CC[C@]12C [Example 219, (R)-4-((3S,8S,9S,10R,13R,14S,17R)-3-hydroxy-10,13-dimethyl-2,3,4,7,8,9,10,11,12,13,14,15,16,17-tetradecahydro-1H-cyclopenta[a]phenanthren-17-yl)-1-(4-(pyridin-3-yloxy)piperidin-1-yl)pentan-1-one] | > 10 µM
18 | C[C@H](CCC(=O)N(C)OCCCO)[C@H]1CC[C@H]2[C@@H]3CC=C4C[C@@H](O)CC[C@]4(C)[C@H]3CC[C@]12C [Example 30, (R)-4-((3S,8S,9S,10R,13R,14S,17R)-3-hydroxy-10,13-dimethyl-2,3,4,7,8,9,10,11,12,13,14,15,16,17-tetradecahydro-1H-cyclopenta[a]phenanthren-17-yl)-N-(3-hydroxypropoxy)-N-methylpentanamide] | 1 to 10 µM
19 | CC(=O)N1CCC(N(C)C(=O)CC[C@@H](C)[C@H]2CC[C@H]3[C@@H]4CC=C5C[C@@H](O)CC[C@]5(C)[C@H]4CC[C@]23C)CC1 [Example 407, (4R)-4-[(1R,3aS,3bS,7S,9aR,9bS,11aR)-7-hydroxy-9a,11a-dimethyl-1H,2H,3H,3aH,3bH,4H,6H,7H,8H,9H,9aH,9bH,10H,11H,11aH-cyclopenta[a]phenanthren-1-yl]-N-(1-acetylpiperidin-4-yl)-N-methylpentanamide] | > 10 µM
20 | Cc1nnc(N2CCN(C(=O)CC[C@@H](C)[C@H]3CC[C@H]4[C@@H]5CC=C6C[C@@H](O)CC[C@]6(C)[C@H]5CC[C@]34C)CC2)s1 [Example 225, (R)-4-((3S,8S,9S,10R,13R,14S,17R)-3-hydroxy-10,13-dimethyl-2,3,4,7,8,9,10,11,12,13,14,15,16,17-tetradecahydro-1H-cyclopenta[a]phenanthren-17-yl)-1-(4-(5-methyl-1,3,4-thiadiazol-2-yl)piperazin-1-yl)pentan-1-one] | > 10 µM
